Laboratory results as given in patent US9080186B2, “Compositions comprising cationic amphiphiles and colipids for delivering therapeutic molecules” (Agave Pharma, Incorporated, priority 2009, dated 2015).

Assay: siRNA remaining in water (supernatant OD260) after precipitation with cationic lipid
Type: physicochemical
Set-up: unit not given here
Method: A nucleic acid/cationic lipid salt was prepared by the following method. Two mg of the cationic lipid was dissolved in 0.1 mL of chloroform in a clean, dry borosilicate clear glass vial and the chloroform was evaporated off by blowing nitrogen gas into the vial and any remaining trace amount of chloroform was removed by drying in vacuo in a vacuum chamber. The vial was removed from the vacuum chamber and 0.1 mL of ethanol was added. The vial was sealed with TEFLON®-lined cap and tightly wrapped with a sealing tape. The vial was vortexed or/and sonicated to dissolve the cationic lipid.
The solution of the cationic lipid in ethanol was added to an aqueous solution containing 1 mg siRNA. The addition of the cationic lipid to the siRNA solution caused immediate aggregation forming a water-insoluble cationic lipid/nucleic acid salt comprised of the cationic lipid and siRNA.
The water-insoluble cationic lipid/nucleic acid salt in a tube was then centrifuged in an Eppendorf microcentrifuge at maximum speed for 15 minutes to form a pellet. The supernatant after each centrifugation were collected and the amount siRNA in the supernatant was measured with OD260.
Table 2 is the summary of measurement of the ratio of siRNA/lipid which rendering siRNA insoluble in water.

siRNA remaining in water (siRNA/lipids ratio 0.5) | siRNA remaining in water (siRNA/lipids ratio 0.75) | siRNA remaining in water (siRNA/lipids ratio 1) | siRNA remaining in water (siRNA/lipids ratio 1.5) | siRNA remaining in water (siRNA/lipids ratio 2) | SMILES
61 | 57 | 46 | 29 | 6 | CCCCCCCC/C=C\CCCCCCCCOCC(C[N+](C)(C)C)OCCCCCCCC/C=C\CCCCCCCC.[Cl-] (stereo not drawn) [DOTMA, N-[1-(2,3-dioleyloxy)propyl]-N,N,N-trimethylammonium chloride]
63 | 55 | 45 | 28 | 10 | CCCCCCCC/C=C\CCCCCCCC(=O)OCC(C[N+](C)(C)C)OC(=O)CCCCCCC/C=C\CCCCCCCC.[Cl-] (stereo not drawn) [DOTAP, N-(l-(2,3-dioleoyloxy)propyl)-N,N,N-trimethylammonium chloride]

SMILES | siRNA remaining in water (siRNA/lipids ratio 0.5) | siRNA remaining in water (siRNA/lipids ratio 0.75) | siRNA remaining in water (siRNA/lipids ratio 1) | siRNA remaining in water (siRNA/lipids ratio 1.5) | siRNA remaining in water (siRNA/lipids ratio 2)
CC(C)CCC[C@@H](C)[C@H]1CC[C@H]2[C@@H]3CC=C4C[C@@H](OC(=O)NCCN(C)C)CC[C@]4(C)[C@H]3CC[C@]12C.Cl [DC-Chol, cholesteryl 3β-N-(dimethylaminoethyl)carbamate hydrochloride] | 72 | 63 | 57 | 35 | 13
